From patent publication US5733927A, “Salts of glucopyranose derivative and solutions of the same” (Ono Pharmaceutical Co., Ltd., priority 1992, dated 1998)
Converted amounts (≈) assume the structure as drawn. Structures can show the parent of a compound that is named as a salt.

Columns and labels:
[1] = Solubility in a mixture of water-ethanol (1:1) at 25° C. (Table 1); type: physicochemical
[2] = Solubility for injectable solvents / the solvent for the administration (stated in words); type: physicochemical; conditions: for solubility for the solvent for the administration: compared with the mixture of salts of the formula (B) and calcium salt
[3] = Pharmacological activity (lipid A-like activity; stated in words, no test described); conditions: sufficiency for use as a pharmaceutical agent

| Solubility [1] | solubility for the solvent for the administration [2] | solubility for injectable solvents ([2]; injectable solvents) | SMILES | pharmacological activity [3] |
| --- | --- | --- | --- | --- |
| 1.5 mg/mL |  |  | CCCCCCCCCCC[C@@H](CC(=O)N[C@H]1C(O)O[C@H](CO)[C@@H](OS(=O)(=O)O)[C@@H]1OC(=O)CCCCCCCCc1ccccc1)OC(=O)CCCCCCCCc1ccccc1 (mixture of isomers) [Reference example 5, mixture salt of calcium, sodium and magnesium of 2-deoxy-2-[(3S)-(9-phenylnonanoyloxy)tetradecanoyl]amino-3-O-(9-phenylnonanoyl)-4-O-sulfo-D-glucopyranose, reference compound] |  |
| 212 mg/mL (≈ 231 mM) | very good solubility |  | CCCCCCCCCCC[C@@H](CC(=O)N[C@H]1C(O)O[C@H](CO)[C@@H](OS(=O)(=O)O)[C@@H]1OC(=O)CCCCCCCCc1ccccc1)OC(=O)CCCCCCCCc1ccccc1 (single isomer, unassigned) [Example 3] |  |
| > 270 mg/mL | very good solubility |  | CCCCCCCCCCC[C@@H](CC(=O)N[C@H]1C(O)O[C@H](CO)[C@@H](OS(=O)(=O)O)[C@@H]1OC(=O)CCCCCCCCc1ccccc1)OC(=O)CCCCCCCCc1ccccc1 (single isomer, unassigned) [Example 4] |  |
|  |  | very poor | CCCCCCCCCCC[C@@H](CC(=O)N[C@H]1C(O)O[C@H](CO)[C@@H](OS(=O)(=O)O)[C@@H]1OC(=O)CCCCCCCCc1ccccc1)OC(=O)CCCCCCCCc1ccccc1 (stereo partly drawn) [formula (Aa), 2-Deoxy-2-[(3S)-(9-phenylnonanoyloxy)tetradecanoyl]amino-3-O-(9-phenylnonanoyl)-4-O-sulfo-D-glucopyranose, reference compound] | sufficient pharmacological activity |
